Reference: patent US20240190880A1 (THE REGENTS OF THE UNIVERSITY OF MICHIGAN, priority 2021, published 2024)

Target: T1, ER (Homo sapiens, UniProt P03372)
T1 construct: host or cells: T47D and MCF7 human breast cancer cells
T1 sequence (P03372 1-595): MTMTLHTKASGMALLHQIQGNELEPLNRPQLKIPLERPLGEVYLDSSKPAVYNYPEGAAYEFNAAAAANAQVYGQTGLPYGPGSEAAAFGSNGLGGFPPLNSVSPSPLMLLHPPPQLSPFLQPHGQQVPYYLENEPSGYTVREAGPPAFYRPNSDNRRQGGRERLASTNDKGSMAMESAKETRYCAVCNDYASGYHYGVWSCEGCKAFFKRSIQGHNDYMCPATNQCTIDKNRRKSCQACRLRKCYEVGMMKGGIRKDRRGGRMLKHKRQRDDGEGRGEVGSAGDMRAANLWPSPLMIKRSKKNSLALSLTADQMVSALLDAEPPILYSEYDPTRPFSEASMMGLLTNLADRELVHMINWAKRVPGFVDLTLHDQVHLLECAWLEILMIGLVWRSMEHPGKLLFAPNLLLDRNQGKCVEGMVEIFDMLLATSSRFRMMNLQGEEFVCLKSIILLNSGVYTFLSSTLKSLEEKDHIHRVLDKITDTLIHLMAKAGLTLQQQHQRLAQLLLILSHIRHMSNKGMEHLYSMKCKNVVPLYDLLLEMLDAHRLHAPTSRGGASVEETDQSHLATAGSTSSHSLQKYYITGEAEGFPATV
Assay: ER degradation activity, in-cell western blot analysis in T47D cells
Assay type: cell-based
Settings: 16 hours, Table A does not say which cell line (T47D or MCF7), read-out: Potency (DC50)
Method: ER degradation activity was evaluated in the human breast cancer cell line T47D and MCF7 purchased from the American Type Culture Collection (ATCC), Manassas, VA, and maintained and cultured in Dulbecco's Modified Eagle's medium (DMEM) containing 10% fetal bovine serum, 1 unit/ml of penicillin and 1 μg/ml of streptomycin.
The protocol for the in-cell western blot analysis: a. seed cells in black-sided/clear bottom 96- or 384-well plates at 40,000 or 10,000 cells/well, overnight; b. add diluted compounds (final 0.5% DMSO), 16 hours. […] RT 2 h, gentle shaking. Negative control: cells plus secondary antibodies (no primary antibodies); e. wash ×4 with PBS+0.05-0.1% Tween 20, gentel shaking; f. anti-rabbit-680 and anti-mouse-800 (both 1:1000 in LiCor block+0.05% Tween20, RT 1 h, gentle shaking, no light. LI-COR: 0.2% to reduce background; g. wash×4 with PBS+0.05% Tween 20, gental shaking; h. add 100 μL or 25 μL of PBS to each well and read on CLX plate reader. The relative ER percentage in treated cells were obtained by comparing the values of treated wells to those in untreated and DMSO-treated wells as 100%.

DC50, < 10 nM:
O=C1CCC(N2C(=O)c3cc4c(cc3C2=O)CN(CC(=O)N2CC3(CCN(c5ccc([C@@H]6c7ccc(O)cc7CC[C@@H]6c6ccccc6)cc5)CC3)C2)C4)C(=O)N1 (mixture of isomers) [E 9, Rac-2-(2,6-dioxopiperidin-3-yl)-6-(2-(7-(4-((1R,2S)-6-hydroxy-2-phenyl-1,2,3,4-tetrahydronaphthalen-1-yl)phenyl)-2,7-diazaspiro[3.5]nonan-2-yl)-2-oxoethyl)-6,7-dihydropyrrolo[3,4-f]isoindole-1,3(2H,5H)-dione]
O=C1CCC(N2C(=O)c3cc4c(cc3C2=O)CN(C(=O)C2CCN(C3CCN(c5ccc([C@@H]6c7ccc(O)cc7CC[C@@H]6c6ccc(F)cc6)cc5)CC3)CC2)C4)C(=O)N1 (mixture of isomers) [E 12, Rac-2-(2,6-dioxopiperidin-3-yl)-6-(1′-(4-((1R,2S)-2-(4-fluorophenyl)-6-hydroxy-1,2,3,4-tetrahydronaphthalen-1-yl)phenyl)-[1,4′-bipiperidine]-4-carbonyl)-6,7-dihydropyrrolo[3,4-f]isoindole-1,3(2H,5H)-dione]
O=C1CCC(N2C(=O)c3cc4c(cc3C2=O)CN(C2CCN(C(=O)C3CCN(c5ccc([C@@H]6c7ccc(O)cc7CC[C@@H]6c6ccccc6)cc5)CC3)CC2)C4)C(=O)N1 (mixture of isomers) [E 13, Rac-2-(2,6-dioxopiperidin-3-yl)-6-(1-(1-(4-((1R,2S)-6-hydroxy-2-phenyl-1,2,3,4-tetrahydronaphthalen-1-yl)phenyl)piperidine-4-carbonyl)pi570 peridin-4-yl)-6,7-dihydropyrrolo[3,4-f]isoindole-1,3(2H,5H)-dione]
O=C1CCC(N2C(=O)c3cc4c(cc3C2=O)CN(CC(=O)N2CC3(CCN(c5ccc([C@@H]6c7ccc(O)cc7CC[C@@H]6c6ccc(F)cc6)cc5)CC3)C2)C4)C(=O)N1 (mixture of isomers) [E 19, Rac-2-(2,6-dioxopiperidin-3-yl)-6-(2-(7-(4-((1R,2S)-2-(4-fluorophenyl)-6-hydroxy-1,2,3,4-tetrahydronaphthalen-1-yl)phenyl)-2,7-diazaspiro[3.5]nonan-2-yl)-2-oxoethyl)-6,7-dihydropyrrolo[3,4-f]isoindole-1,3(2H,5H)-dione]

DC50, 10 to 100 nM:
O=C1CCC(N2C(=O)c3cc4c(cc3C2=O)CN(CC(=O)N2CC3(C2)CN(c2ccc([C@@H]5c6ccc(O)cc6CC[C@@H]5c5ccccc5)cc2)C3)C4)C(=O)N1 (mixture of isomers) [E 8, 2-(2,6-dioxopiperidin-3-yl)-6-(2-(6-(4-((1R,2S)-6-hydroxy-2-phenyl-1,2,3,4-tetrahydronaphthalen-1-yl)phenyl)-2,6-diazaspiro[3.3]heptan-2-yl)-2-oxoethyl)-6,7-dihydropyrrolo[3,4-f]isoindole-1,3(2H,5H)-dione]
O=C1CCC(N2C(=O)c3cc4c(cc3C2=O)CN(CC(=O)N2CCC3(CC2)CN(c2ccc([C@@H]5c6ccc(O)cc6CC[C@@H]5c5ccccc5)cc2)C3)C4)C(=O)N1 (mixture of isomers) [E 10, Rac-2-(2,6-dioxopiperidin-3-yl)-6-(2-(2-(4-((1R,2S)-6-hydroxy-2-phenyl-1,2,3,4-tetrahydronaphthalen-1-yl)phenyl)-2,7-diazaspiro[3.5]nonan-7-yl)-2-oxoethyl)-6,7-dihydropyrrolo[3,4-f]isoindole-1,3(2H,5H)-dione]
O=C1CCC(N2C(=O)c3cc4c(cc3C2=O)CN(CC(=O)N2CCC3(CC2)CN(c2ccc([C@@H]5c6ccc(O)cc6CC[C@@H]5c5ccc(F)cc5Cl)cc2)C3)C4)C(=O)N1 (mixture of isomers) [E 11, rac-6-(2-(2-(4-((1R,2S)-2-(2-chloro-4-fluorophenyl)-6-hydroxy-1,2,3,4-tetrahydronaphthalen-1-yl)phenyl)-2,7-diazaspiro[3.5]nonan-7-yl)-2-oxoethyl)-2-(2,6-dioxopiperidin-3-yl)-6,7-dihydropyrrolo[3,4-f]isoindole-1,3(2H,5H)-dione]
O=C1CCC(N2C(=O)c3cc4c(cc3C2=O)CN(CC2CCN(C(=O)C3CCN(c5ccc([C@@H]6c7ccc(O)cc7CC[C@@H]6c6ccccc6)cc5)CC3)CC2)C4)C(=O)N1 (mixture of isomers) [E 14, Rac-2-(2,6-dioxopiperidin-3-yl)-6-((1-(1-(4-((1R,2S)-6-hydroxy-2-phenyl-1,2,3,4-tetrahydronaphthalen-1-yl)phenyl)piperidine-4-carbonyl)piperidin-4-yl)methyl)-6,7-dihydropyrrolo[3,4-f]isoindole-1,3(2H,5H)-dione]
O=C1CCC(N2C(=O)c3cc4c(cc3C2=O)CN(C2CN(C(=O)C3CCN(c5ccc([C@@H]6c7ccc(O)cc7CC[C@@H]6c6ccccc6)cc5)CC3)C2)C4)C(=O)N1 (mixture of isomers) [E 15, Rac-2-(2,6-dioxopiperidin-3-yl)-6-(1-(1-(4-((1R,2S)-6-hydroxy-2-phenyl-1,2,3,4-tetrahydronaphthalen-1-yl)phenyl)piperidine-4-carbonyl)azetidin-3-yl)-6,7-dihydropyrrolo[3,4-f]isoindole-1,3(2H,5H)-dione]
O=C1CCC(N2C(=O)c3cc4c(cc3C2=O)CN(CC2CN(C(=O)C3CCN(c5ccc([C@@H]6c7ccc(O)cc7CC[C@@H]6c6ccccc6)cc5)CC3)C2)C4)C(=O)N1 (mixture of isomers) [E 16, Rac-2-(2,6-dioxopiperidin-3-yl)-6-((1-(1-(4-((1R,2S)-6-hydroxy-2-phenyl-1,2,3,4-tetrahydronaphthalen-1-yl)phenyl)piperidine-4-carbonyl)azetidin-3-yl)methyl)-6,7-dihydropyrrolo[3,4-f]isoindole-1,3(2H,5H)-dione]
O=C1CCC(N2C(=O)c3cc4c(cc3C2=O)CN(CC(=O)N2CCC3(C2)CN(c2ccc([C@@H]5c6ccc(O)cc6CC[C@@H]5c5ccccc5)cc2)C3)C4)C(=O)N1 (mixture of isomers) [E 17, rac-2-(2,6-dioxopiperidin-3-yl)-6-(2-(2-(4-((1R,2S)-6-hydroxy-2-phenyl-1,2,3,4-tetrahydronaphthalen-1-yl)phenyl)-2,6-diazaspiro[3.4]octan-6-yl)-2-oxoethyl)-6,7-dihydropyrrolo[3,4-f]isoindole-1,3(2H,5H)-dione]
O=C1CCC(N2C(=O)c3cc4c(cc3C2=O)CN(CC(=O)N2CC3(C2)CN(c2ccc([C@@H]5c6ccc(O)cc6CC[C@@H]5c5ccc(F)cc5)cc2)C3)C4)C(=O)N1 (mixture of isomers) [E 18, Rac-2-(2,6-dioxopiperidin-3-yl)-6-(2-(6-(4-((1R,2S)-2-(4-fluorophenyl)-6-hydroxy-1,2,3,4-tetrahydronaphthalen-1-yl)phenyl)-2,6-diazaspiro[3.3]heptan-2-yl)-2-oxoethyl)-6,7-dihydropyrrolo[3,4-f]isoindole-1,3(2H,5H)-dione]
O=C1CCC(N2C(=O)c3cc4c(cc3C2=O)CN(CC(=O)N2CCC3(CC2)CCN(c2ccc([C@@H]5c6ccc(O)cc6CC[C@@H]5c5ccccc5)cc2)CC3)C4)C(=O)N1 (mixture of isomers) [E 20, Rac-2-(2,6-dioxopiperidin-3-yl)-6-(2-(9-(4-((1R,2S)-6-hydroxy-2-phenyl-1,2,3,4-tetrahydronaphthalen-1-yl)phenyl)-3,9-diazaspiro[5.5]undecan-3-yl)-2-oxoethyl)-6,7-dihydropyrrolo[3,4-f]isoindole-1,3(2H,5H)-dione]
